This is an account of results in US11253565B2, “Nanoparticle ophthalmic composition for the treatment of ocular disorders or diseases” (Eye Pharma S.p.A., priority 2017, dated 2022).

The nature of data set [1]: Corneal permeabilization / bioavailability test on whole ox eye with fluoresceine tracer. The data set is classed as in vitro ADME. To be noted: 30 minutes after application on anterior corneal surface. As to the method:
The bioavailability was tested on whole ox eye (in vitro test) and on rabbit eyes (test in vivo) by applying the eye drops on the anterior corneal surface. A fluorescent tracer (fluoresceine) was added to the eye drops to follow the intraocular pharmacokinetics thereof. The transcorneal distribution of the std eye drops was evaluated by a slit lamp with determination of the fluorescence on both sides of the corneal membrane. A fluorescent tracer was added to the eye drops in order to follow the intraocular pharmacokinetics thereof. […] At the end of the prescribed time, its adsorption through the anterior chamber was assessed using a slit lamp. […] After the treatment, the fluid contained in the anterior chamber was collected and subjected to spectrofluorimetric analysis for the quantification of the tracer able to cross the corneal membrane. For the analysis, a […] spectrofluorometer (Hitachi, Tokyo, Japan) calibrated on specific fluorescence characteristics of fluoresceine (excitation 500 nm, emission 561 nm) was used. […] The ability of the std eye drops, both as such and in nanoparticle form, to pass the corneal membrane was thus determined by analysis del fluorescent track present in the fluid in the anterior chamber 30 minutes after the application of the preparation on the anterior corneal surface.

The subject of data set [2] is HTM cells. Put plainly: Microscopic morphologic aspect of HTM cells in the different conditions of treatment. The note with it: treatment with substance only. The data set is classed as cell-based, human. As to the method: (§1) Commercially available endothelial cellular lines of sclerocorneal trabecular meshwork were used. Said lines undergone a physiological ageing lasted about 10 cycles of cellular replication, thus representing a validated in vitro model of sclerocorneal trabecular meshwork degeneration. Sclerocorneal human trabecular meshwork cells (HTM cells. ScienceCell Research Laboratories, CA, USA) were grown in a nutritional medium containing 10% v/v fetal bovine serum, 2 mM L-glutamine, penicillin (100 IU/mL) at 37° C. in the presence of 5% v/v CO2. Once cells were semi-confluent (80% covering of the plate surface), cells were collected by treatment with trypsin/EDTA and distributed in multiwell microplates at a density of 7×10^3 cells/well. Cells at 80% confluence were pre-treated for 30 minutes with 50 μL of eye drops with different polyphenolic concentration (0.15% Perilla frutescens extract in 0.25% sodium hyaluronate (high eye drops) compared with a 0.10% Perilla frutescens extract in 0.25% sodium hyaluronate (standard eye drops)). […]

Data set [3] has as its system Sclerocorneal human trabecular meshwork cells (HTM cells). Put plainly: MTT cell viability test on HTM cells with or without H2O2 oxidative damage. The data set is classed as cell-based. The note with it: H2O2 only. Here is the method: as §1
At the end of the treatment, the culture medium was removed, and cell viability and genotoxic damage were evaluated. […]
In particular, cell viability was assessed using the metabolization test of 3-(4,5-dimethyithiazol-2-yl)-2,5-diphenyltetrazolium bromide (MTT). […] The results were analysed by ANOVA using the Statview statistic software.
For orientation: Tetrazolium assays rely on reduction of a dye to a coloured formazan, in cell work by metabolically active cells.

The subject of data set [4] is HTM cells. Briefly: Genotoxic damage (comet test) in HTM cells. The note with it: treatment with substance only. In kind it is cell-based, human. Here is the method:
Commercially available endothelial cellular lines of sclerocorneal trabecular meshwork were used. Said lines undergone a physiological ageing lasted about 10 cycles of cellular replication, thus representing a validated in vitro model of sclerocorneal trabecular meshwork degeneration. Sclerocorneal human trabecular meshwork cells (HTM cells. ScienceCell Research Laboratories, CA, USA) were grown in a nutritional medium containing 10% v/v fetal bovine serum, 2 mM L-glutamine, penicillin (100 IU/mL) at 37° C. in the presence of 5% v/v CO2. […]
For the assessment of genotoxic damage, the comet test was used. […] In particular, the aspect of DNA fragmentation acquired by the comet test in HTM cells was evaluated. […] The images were then analysed at 400 magnifications by fluorescence microscope (Leica DMI 4000B) equipped with digital camera (Leica DFC 310 FX). For each slide a minimum of 100 nuclei were analysed by CASP imaging analysis system (Comet assay software project, http://www.casp.sourceforge.net). Single-strand and double-strand breaks were quantified in terms of “tail moment”, which is the product of the comet tail length multiplied by the total DNA fraction in the tail. […] The significance of differences among the various treatments was determined by ANOVA test.

For the compound `O=C1OC2(c3ccc(O)cc3Oc3cc(O)ccc32)c2ccccc21` [fluoresceine, fluorescein sodium], the “fluorescent tracer in the fluid of the anterior chamber (spectrofluorimetry)” value in data set [1] was “conspicuous and specific positive signal”.
Regarding `OO` [H2O2], the HTM cell morphology result in the data set with HTM cells [2] is “cells take a rounded shape, separate from the substrate and reflect the light”. In addition, in data set [3], the “cytopathic effect (MTT cell viability)” value is “substantial cytopathic effect”. In addition, the “DNA damage / fragmentation (comet test)” value in the data set with HTM cells [4] is listed as “nuclei are massively dissolved with evident diffusion of the fragmented DNA”.
